Source: ChEMBL document CHEMBL1133879, “Nicotinamide N-oxides as CXCR2 antagonists” (Bioorg Med Chem Lett, 2001)

Key:
[1] = molecular target: T1, Calcitonin receptor (Homo sapiens) (UniProt P30988); assay: Displacement of [125I]calcitonin from T-47D (human breast cancer) cell membrane expressing human calcitonin receptor; assay type: cell membranes; details: T47D; concentration not given here
T1 sequence (whole entry): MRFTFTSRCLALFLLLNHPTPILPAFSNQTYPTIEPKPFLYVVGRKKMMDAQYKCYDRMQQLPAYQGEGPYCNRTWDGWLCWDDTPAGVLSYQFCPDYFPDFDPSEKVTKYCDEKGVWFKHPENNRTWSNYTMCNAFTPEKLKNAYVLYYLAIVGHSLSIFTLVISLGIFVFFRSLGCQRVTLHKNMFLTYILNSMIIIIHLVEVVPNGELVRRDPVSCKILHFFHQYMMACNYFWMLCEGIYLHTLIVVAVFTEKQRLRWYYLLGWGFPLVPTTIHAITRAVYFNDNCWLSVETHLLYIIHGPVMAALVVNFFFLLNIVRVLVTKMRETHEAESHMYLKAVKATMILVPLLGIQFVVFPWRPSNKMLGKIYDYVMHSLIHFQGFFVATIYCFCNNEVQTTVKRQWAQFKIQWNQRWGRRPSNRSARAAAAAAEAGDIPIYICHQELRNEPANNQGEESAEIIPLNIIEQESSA

[2] = molecular target: T2, Gastrin/cholecystokinin type B receptor (Homo sapiens) (UniProt P32239); assay: Displacement of [3H]CCK-8 from NIH3T3 (mouse embryo cell membrane ) expressing human cholecystokinin CCKB receptor; assay type: cell membranes; design: concentration or dose not given beside the values; details: concentration not given here
T2 sequence (whole entry): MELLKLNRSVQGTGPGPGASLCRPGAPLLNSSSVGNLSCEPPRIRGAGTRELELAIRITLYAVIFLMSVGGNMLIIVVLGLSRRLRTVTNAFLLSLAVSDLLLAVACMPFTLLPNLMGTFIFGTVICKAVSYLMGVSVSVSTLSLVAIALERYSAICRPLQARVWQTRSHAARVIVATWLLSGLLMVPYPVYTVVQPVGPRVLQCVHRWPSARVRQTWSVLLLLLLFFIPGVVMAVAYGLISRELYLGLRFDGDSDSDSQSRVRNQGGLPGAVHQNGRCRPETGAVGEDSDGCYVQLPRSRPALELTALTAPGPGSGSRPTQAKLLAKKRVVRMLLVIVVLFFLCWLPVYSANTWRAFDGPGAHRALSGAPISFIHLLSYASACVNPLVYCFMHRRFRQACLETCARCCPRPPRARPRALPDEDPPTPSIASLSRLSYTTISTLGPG

[3] = molecular target: T3, C-X-C chemokine receptor type 1 (Homo sapiens) (UniProt P25024); assay: Displacement of [125I]IL-8 from CHO cell membrane expressing human CXCR1 receptor at a concentration of 20 uM; assay type: cell membranes
T3 sequence (whole entry): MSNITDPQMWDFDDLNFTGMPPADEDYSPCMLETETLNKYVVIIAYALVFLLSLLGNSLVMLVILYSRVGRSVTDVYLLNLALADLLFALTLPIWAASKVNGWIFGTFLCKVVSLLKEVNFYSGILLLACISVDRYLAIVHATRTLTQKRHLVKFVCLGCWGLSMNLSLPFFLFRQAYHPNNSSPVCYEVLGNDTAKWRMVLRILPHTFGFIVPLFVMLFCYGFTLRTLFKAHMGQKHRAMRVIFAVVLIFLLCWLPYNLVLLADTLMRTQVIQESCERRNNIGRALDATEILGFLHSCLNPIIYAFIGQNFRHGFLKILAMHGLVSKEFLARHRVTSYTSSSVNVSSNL

[4] = molecular target: T4, C-X-C chemokine receptor type 2 (Homo sapiens, UniProt P25025); assay: Evaluated using an SPA assay with recombinant human [125I]IL-8 and membranes prepared from Sf9 cells expressing human CXCR2
T4 sequence (P25025 whole entry): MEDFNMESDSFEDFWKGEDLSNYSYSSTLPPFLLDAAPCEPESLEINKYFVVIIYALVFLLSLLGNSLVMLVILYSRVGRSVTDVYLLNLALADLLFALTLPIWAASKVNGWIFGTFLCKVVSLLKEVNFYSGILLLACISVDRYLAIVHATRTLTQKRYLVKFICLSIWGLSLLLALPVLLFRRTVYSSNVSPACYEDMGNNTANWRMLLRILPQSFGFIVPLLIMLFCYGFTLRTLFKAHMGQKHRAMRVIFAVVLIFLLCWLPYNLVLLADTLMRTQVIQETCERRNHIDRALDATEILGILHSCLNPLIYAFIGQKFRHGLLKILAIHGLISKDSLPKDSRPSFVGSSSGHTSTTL

[5] = molecular target: T5, C-X-C chemokine receptor type 2 (Homo sapiens) (UniProt P25025); assay: Displacement of [125I]IL-8 from CHO cell membrane expressing human CXCR2 receptor at a concentration of 20 uM; assay type: cell membranes
T5 sequence (whole entry): T4 sequence (P25025 whole entry)

[6] = molecular target: T6, Endothelin receptor type B (Homo sapiens) (UniProt P24530); assay: Displacement of [125I]endothelin from CHO cell membrane expressing human Endothelin B receptor; assay type: cell membranes; design: concentration or dose not given beside the values; details: concentration not given here
T6 sequence (whole entry): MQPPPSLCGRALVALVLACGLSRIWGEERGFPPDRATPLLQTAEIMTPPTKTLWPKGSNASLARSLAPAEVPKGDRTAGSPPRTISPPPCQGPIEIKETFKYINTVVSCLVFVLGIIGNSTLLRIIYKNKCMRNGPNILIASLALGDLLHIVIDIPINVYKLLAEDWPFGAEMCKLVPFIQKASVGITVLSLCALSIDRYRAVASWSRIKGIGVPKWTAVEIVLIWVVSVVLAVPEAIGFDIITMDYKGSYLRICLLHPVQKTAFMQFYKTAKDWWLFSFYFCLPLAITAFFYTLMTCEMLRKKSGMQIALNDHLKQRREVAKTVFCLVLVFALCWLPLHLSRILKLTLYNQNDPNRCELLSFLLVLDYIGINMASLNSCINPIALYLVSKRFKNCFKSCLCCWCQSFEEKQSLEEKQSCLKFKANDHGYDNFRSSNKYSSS

Homo sapiens [7] = organism: Homo sapiens; assay: Ability to block GRO-alpha driven human neutrophil chemotaxis; assay type: functional, organism-based
[8] = molecular target: T7, Neuropeptide Y receptor type 1 (Homo sapiens) (UniProt P25929); assay: Displacement of [125I]-peptide YY (PYY) from SK-N-MC (human neuroblastoma) cell membrane expressing human Neuropeptide Y receptor type 1; design: concentration or dose not given beside the values; details: concentration not given here
T7 sequence (whole entry): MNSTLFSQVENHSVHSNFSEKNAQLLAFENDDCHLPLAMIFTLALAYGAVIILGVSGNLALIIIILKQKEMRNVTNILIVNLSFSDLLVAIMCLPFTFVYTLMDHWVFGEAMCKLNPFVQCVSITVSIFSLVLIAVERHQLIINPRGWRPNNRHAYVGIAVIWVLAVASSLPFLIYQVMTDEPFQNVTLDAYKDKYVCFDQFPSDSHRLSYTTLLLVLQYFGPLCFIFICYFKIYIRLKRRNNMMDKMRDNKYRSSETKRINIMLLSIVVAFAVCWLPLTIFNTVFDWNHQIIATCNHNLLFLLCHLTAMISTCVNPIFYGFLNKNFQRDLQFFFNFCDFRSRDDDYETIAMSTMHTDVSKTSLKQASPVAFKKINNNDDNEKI

Homo sapiens [9] = organism: Homo sapiens; assay: Functional selectivity was assessed in a neutrophil chemotaxis assay using N-formyl-methionyl-leucyl-phenylalanine (FMLP); assay type: organism-based
[10] = molecular target: Somatostatin receptor (Mus musculus) (UniProt P30935+O08858+P30875+P30873+P49660); assay: Displacement of [125I]-TYR somatostatin from At-T-20 (mouse pituitary) cell membrane expressing somatostatin receptor; assay type: cell membranes; details: Pituitary gland cell; concentration not given here
[11] = molecular target: T4, C-X-C chemokine receptor type 2; assay: Compound binding was evaluated using an SPA assay with recombinant human [125I]IL-8 and membranes prepared from Sf9 cells expressing human C-X-C chemokine receptor type 2; assay type: cell membranes

Somatostatin receptor (Mus musculus), sequence (P30935 whole entry): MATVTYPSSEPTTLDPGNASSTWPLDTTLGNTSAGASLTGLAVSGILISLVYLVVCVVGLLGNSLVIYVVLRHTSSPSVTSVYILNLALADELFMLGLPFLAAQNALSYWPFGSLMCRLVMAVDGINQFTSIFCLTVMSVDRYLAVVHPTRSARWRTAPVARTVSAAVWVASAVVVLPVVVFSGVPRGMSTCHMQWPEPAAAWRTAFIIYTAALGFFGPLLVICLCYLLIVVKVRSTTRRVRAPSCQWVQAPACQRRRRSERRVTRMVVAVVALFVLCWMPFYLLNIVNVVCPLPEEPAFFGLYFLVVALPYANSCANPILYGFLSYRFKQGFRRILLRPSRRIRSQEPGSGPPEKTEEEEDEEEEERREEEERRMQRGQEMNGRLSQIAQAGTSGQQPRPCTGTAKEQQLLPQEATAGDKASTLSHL
Somatostatin receptor (Mus musculus), sequence (O08858 whole entry): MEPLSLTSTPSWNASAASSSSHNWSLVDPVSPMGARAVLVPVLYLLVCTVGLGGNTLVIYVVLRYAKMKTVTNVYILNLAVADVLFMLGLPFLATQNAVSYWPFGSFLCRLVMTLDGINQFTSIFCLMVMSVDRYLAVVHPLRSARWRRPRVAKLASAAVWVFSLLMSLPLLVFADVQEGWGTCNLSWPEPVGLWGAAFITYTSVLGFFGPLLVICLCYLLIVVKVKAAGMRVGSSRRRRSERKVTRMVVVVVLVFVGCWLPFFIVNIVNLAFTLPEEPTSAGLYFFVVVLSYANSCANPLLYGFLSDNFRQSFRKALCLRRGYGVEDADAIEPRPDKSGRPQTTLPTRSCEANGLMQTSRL
Somatostatin receptor (Mus musculus), sequence (P30875 whole entry): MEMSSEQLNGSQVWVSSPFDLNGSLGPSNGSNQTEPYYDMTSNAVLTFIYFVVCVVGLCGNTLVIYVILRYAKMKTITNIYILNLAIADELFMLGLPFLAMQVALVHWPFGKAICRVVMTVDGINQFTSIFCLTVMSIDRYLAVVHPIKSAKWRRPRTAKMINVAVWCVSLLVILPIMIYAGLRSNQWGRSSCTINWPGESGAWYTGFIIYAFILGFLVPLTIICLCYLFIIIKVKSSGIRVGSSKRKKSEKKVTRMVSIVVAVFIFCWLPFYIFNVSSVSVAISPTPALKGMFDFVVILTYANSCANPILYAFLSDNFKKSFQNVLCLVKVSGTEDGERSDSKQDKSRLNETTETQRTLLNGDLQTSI
Somatostatin receptor (Mus musculus), sequence (P30873 whole entry): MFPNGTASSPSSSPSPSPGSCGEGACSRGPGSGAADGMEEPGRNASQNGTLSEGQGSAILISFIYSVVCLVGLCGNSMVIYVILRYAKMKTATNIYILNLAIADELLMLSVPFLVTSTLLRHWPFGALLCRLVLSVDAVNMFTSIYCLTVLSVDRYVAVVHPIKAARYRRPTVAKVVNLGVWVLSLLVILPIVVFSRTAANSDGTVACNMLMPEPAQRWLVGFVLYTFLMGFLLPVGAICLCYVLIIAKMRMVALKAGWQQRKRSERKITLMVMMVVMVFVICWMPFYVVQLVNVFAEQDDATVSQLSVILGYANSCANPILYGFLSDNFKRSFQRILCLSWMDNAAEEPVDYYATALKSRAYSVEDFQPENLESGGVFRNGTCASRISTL
Somatostatin receptor (Mus musculus), sequence (P49660 with tags, fused parts or gaps): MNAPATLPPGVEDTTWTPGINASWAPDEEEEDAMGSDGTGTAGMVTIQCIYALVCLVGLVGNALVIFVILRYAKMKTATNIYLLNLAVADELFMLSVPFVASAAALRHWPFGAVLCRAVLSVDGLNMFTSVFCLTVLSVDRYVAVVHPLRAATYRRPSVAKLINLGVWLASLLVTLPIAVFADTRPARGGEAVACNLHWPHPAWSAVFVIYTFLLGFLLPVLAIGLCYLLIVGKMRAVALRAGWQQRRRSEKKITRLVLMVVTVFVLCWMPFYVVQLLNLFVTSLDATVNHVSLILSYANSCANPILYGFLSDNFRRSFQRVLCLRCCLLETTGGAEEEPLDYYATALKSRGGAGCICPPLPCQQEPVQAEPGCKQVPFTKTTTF

| SMILES | inhibition [1] [%] | inhibition [2] [%] | inhibition [3] [%] | IC50 [4] [nM] | inhibition [5] [%] | inhibition [6] [%] | IC50 (Homo sapiens [7]) [nM] | inhibition [8] [%] | IC50 (Homo sapiens [9]) [nM] | inhibition [10] [%] | IC50 [11] [nM] |
| --- | --- | --- | --- | --- | --- | --- | --- | --- | --- | --- | --- |
| O=C(Nc1ccccc1O)c1ccc(Cl)[n+]([O-])c1 |  |  |  | > 20000 |  |  | 4200 |  |  |  |  |
| O=C(NC(c1ccccc1)c1ccccc1)c1ccc(Cl)[n+]([O-])c1 |  |  |  | > 20000 |  |  | 830 |  |  |  |  |
| O=C(NCc1ccc(F)cc1)c1ccc(Cl)[n+]([O-])c1 |  |  |  | > 20000 |  |  | > 20000 |  |  |  |  |
| N#Cc1ccc(NC(=O)Nc2ccccc2Br)c2nn[nH]c12 |  |  |  |  |  |  | 10 |  |  |  |  |
| O=C(NC1CCCCC1)c1ccc(Cl)[n+]([O-])c1 |  |  |  | > 20000 |  |  | > 20000 |  |  |  |  |
| CC(C)(C)c1ccc(NC(=O)c2ccc(Cl)[n+]([O-])c2)cc1 |  |  |  | > 20000 |  |  | 1300 |  |  |  |  |
| CCN(CC)CCCCNc1nc2cc(Cl)c(Cl)cc2nc1-c1ccc(-c2cccs2)s1 |  |  |  |  |  |  | 170 |  |  |  | 110 |

Next, values leading:

| inhibition [1] [%] | inhibition [2] [%] | inhibition [3] [%] | IC50 [4] [nM] | inhibition [5] [%] | inhibition [6] [%] | IC50 (Homo sapiens [7]) [nM] | inhibition [8] [%] | IC50 (Homo sapiens [9]) [nM] | inhibition [10] [%] | IC50 [11] [nM] | SMILES |
| --- | --- | --- | --- | --- | --- | --- | --- | --- | --- | --- | --- |
| 4 | 1 | 8 | 460 | 60 | -2 | 1900 | -1 |  |  |  | O=C(Nc1ccc(F)cc1)c1ccc(S(=O)(=O)C2CCCC2)[n+]([O-])c1 |
|  | 29 | 9 | 280 | 77 | 8 | 1000 | 32 | 13000 | 38 |  | O=C(Nc1ccc(F)cc1)c1ccc(S(=O)(=O)Cc2ccccc2)[n+]([O-])c1 |
|  |  |  | 400 |  |  | 2000 |  |  |  |  | CC(C)S(=O)(=O)c1ccc(C(=O)Nc2ccc(F)cc2)c[n+]1[O-] |
|  | 40 | 73 | 130 | 97 | 8 | 2000 | 58 | 9600 | 60 |  | CS(=O)(=O)c1ccc(C(=O)Nc2ccc(F)cc2)c[n+]1[O-] |
| -1 | 11 | 68 | 1000 | 85 | 14 | 1100 | 15 | > 40000 | -2 |  | O=C(Nc1ccc(F)cc1)c1ccc(Cl)[n+]([O-])c1 |
|  |  |  | 90 |  |  | > 20000 |  |  |  |  | O=C(Nc1ccc(F)cc1)c1ccc(S(=O)(=O)c2ccccc2)[n+]([O-])c1 |
|  |  |  | > 20000 |  |  | 500 |  |  |  |  | O=C(Nc1ccc(I)cc1)c1ccc(Cl)[n+]([O-])c1 |
|  |  |  | 32 |  |  | > 20000 |  |  |  |  | O=C(O)c1cccc(S(=O)(=O)c2ccc(C(=O)Nc3ccc(F)cc3)c[n+]2[O-])c1 |
|  |  |  | > 20000 |  |  | > 20000 |  |  |  |  | COc1ccc(NC(=O)c2ccc(Cl)[n+]([O-])c2)cc1 |
| 3 | 14 | 8 | 130 | 97 | 15 | 3300 | 41 | 13300 |  |  | CCS(=O)(=O)c1ccc(C(=O)Nc2ccc(F)cc2)c[n+]1[O-] |
